Columns and labels:
Adrenergic β2 = molecular target: T1, Adrenergic β2 (Homo sapiens, UniProt P07550); test: Adrenergic β2 mediated cAMP production in H292 cells (AlphaScreen), concentration response; type: cell-based; details: for EC50: 60 min, 300 μM rolipram, read-out: β2 pEC50 (converted); for β2 Intrinsic Activity: fraction relative to the maximum activity determined for formoterol
T1 construct: Adherent H292 cells are removed from tissue culture flasks by treatment with Accutase™ cell detachment solution; endogenous in cells; host or cells: H292 cells
T1 sequence (P07550 whole entry): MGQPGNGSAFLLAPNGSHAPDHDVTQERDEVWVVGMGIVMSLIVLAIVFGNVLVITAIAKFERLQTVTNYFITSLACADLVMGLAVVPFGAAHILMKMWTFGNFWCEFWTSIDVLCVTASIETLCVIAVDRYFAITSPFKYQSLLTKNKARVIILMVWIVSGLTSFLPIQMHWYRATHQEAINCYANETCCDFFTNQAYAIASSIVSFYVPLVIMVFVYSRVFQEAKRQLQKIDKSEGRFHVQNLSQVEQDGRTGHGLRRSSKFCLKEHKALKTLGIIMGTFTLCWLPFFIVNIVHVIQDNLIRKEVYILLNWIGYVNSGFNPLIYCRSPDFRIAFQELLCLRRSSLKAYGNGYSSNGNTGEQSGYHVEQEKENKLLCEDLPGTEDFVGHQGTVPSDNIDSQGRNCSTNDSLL
Outline: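 H292 cells seeded overnight, pretreated 10 min with rolipram (300 μM final), then exposed to compounds 60 min at room temperature in HBSS/10 mM HEPES pH 7.4/5 mM glucose, 1% DMSO. Lysate cAMP quantified by AlphaScreen against a standard curve; four-parameter fit gives pEC50 and intrinsic activity relative to formoterol maximum.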

[1] = molecular target: T2, human muscarinic acetylcholine M3 receptor (Homo sapiens, UniProt P20309); test: Muscarinic 3 receptor binding assay ([3H]NMS competition, SPA), pIC50; details: [3H]NMS 0.1 nM, CHO-K1 cell membranes expressing human M3 receptor
T2 construct: expressed in transfected cells; host or cells: CHO-K1 (Chinese Hamster Ovary) cell membranes
T2 sequence (P20309 whole entry): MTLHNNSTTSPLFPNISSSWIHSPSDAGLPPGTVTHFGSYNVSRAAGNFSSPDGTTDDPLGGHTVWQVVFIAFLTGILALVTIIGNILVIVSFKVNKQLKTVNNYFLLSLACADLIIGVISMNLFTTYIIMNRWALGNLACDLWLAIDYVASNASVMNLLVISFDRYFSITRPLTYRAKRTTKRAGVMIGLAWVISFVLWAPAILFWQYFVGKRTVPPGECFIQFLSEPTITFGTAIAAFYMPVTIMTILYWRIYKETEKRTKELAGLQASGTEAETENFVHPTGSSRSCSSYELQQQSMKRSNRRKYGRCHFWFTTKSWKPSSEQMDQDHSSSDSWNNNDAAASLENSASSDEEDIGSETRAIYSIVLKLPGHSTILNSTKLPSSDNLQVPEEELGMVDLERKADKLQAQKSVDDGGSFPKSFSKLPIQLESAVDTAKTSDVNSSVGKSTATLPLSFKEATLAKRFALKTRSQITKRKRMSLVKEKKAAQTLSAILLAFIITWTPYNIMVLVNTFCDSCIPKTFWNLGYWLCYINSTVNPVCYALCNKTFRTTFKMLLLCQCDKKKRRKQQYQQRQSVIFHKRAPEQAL
Outline: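 Competition of [3H]NMS (0.1 nM, quarter Kd) binding to CHO-K1 membranes expressing human M3, SPA format, in 20 mM HEPES pH 7.4, 5 mM MgCl2, 0.1% BSA, 1% DMSO. Incubated 16 h at room temperature; non-specific binding with 1 μM atropine; pIC50 from specific binding.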

`CC(C)c1nc(C(=O)N2CCOC3(CCN(Cc4cccc(CCOCCC(=O)N(CCNCCc5ccc(O)c6c5OCC(=O)N6)CC(F)(F)F)c4F)CC3)C2)cs1` [Example 79, ditrifluoroacetate] was tested, and the EC50 (Adrenergic β2) was 126 nM, the “β2 Intrinsic Activity” value (Adrenergic β2) was 1.0 and the IC50 [1] was 0.126 nM.

In the case of `CCN(CCNCCc1ccc(O)c2[nH]c(=O)sc12)C(=O)CCOCCc1cc(CCN2CCC3(CC2)CN(C(=O)c2csc(C(C)C)n2)CCO3)cs1` [Example 78, N-Ethyl-N-(2-(2-(4-hydroxy-2-oxo-2,3-dihydrobenzo[d]thiazol-7-yl)ethylamino)ethyl)-3-(2-(4-(2-(4-(2-isopropylthiazole-4-carbonyl)-1-oxa-4,9-diazaspiro[5.5]undecan-9-yl)ethyl)thiophen-2-yl)ethoxy)propanamide ditrifluoroacetate], the EC50 (Adrenergic β2) is reported as 12.6 nM, the “β2 Intrinsic Activity” value (Adrenergic β2) is reported as 1.0 and the IC50 [1] is reported as 2.51 nM.

For `CC(C)c1nc(C(=O)N2CCOC3(CCN(CCOc4cccc(CCOCCC(=O)N(CCNCCc5ccc(O)c6c5OCC(=O)N6)C5CCCCC5)c4)CC3)C2)cs1` [Example 53, N-Cyclohexyl-N-(2-(2-(5-hydroxy-3-oxo-3,4-dihydro-2H-benzo[b][1,4]oxazin-8-yl)ethylamino)ethyl)-3-(3-(2-(4-(2-isopropylthiazole-4-carbonyl)-1-oxa-4,9-diazaspiro[5.5]undecan-9-yl)ethoxy)phenethoxy)propanamide ditrifluoroacetate], the EC50 (Adrenergic β2) was 20 nM, the “β2 Intrinsic Activity” value (Adrenergic β2) was 1.0 and the IC50 [1] was 7.94 nM.

In the case of `O=C1COc2c(CCNCCN(C(=O)CCOCCc3cccc(CN4CCC5(CC4)CN(C(=O)c4csc(C6CCCC6)n4)CCO5)c3)C3CCCCC3)ccc(O)c2N1` [Example 88, N-Cyclohexyl-3-(3-((4-(2-cyclopentylthiazole-4-carbonyl)-1-oxa-4,9-diazaspiro[5.5]undecan-9-yl)methyl)phenethoxy)-N-(2-(2-(5-hydroxy-3-oxo-3,4-dihydro-2H-benzo[b][1,4]oxazin-8-yl)ethylamino)ethyl)propanamide], the EC50 (Adrenergic β2) is reported as 200 nM, the “β2 Intrinsic Activity” value (Adrenergic β2) is reported as 1.0 and the IC50 [1] is reported as 0.2 nM.

With `CCC(CC)c1nc(C(=O)N2CCOC3(CCN(Cc4cccc(CCOCCC(=O)N(CCNCCc5ccc(O)c6c5OCC(=O)N6)C5CCCCC5)c4)CC3)C2)cs1` [Example 96, N-Cyclohexyl-N-(2-(2-(5-hydroxy-3-oxo-3,4-dihydro-2H-benzo[b][1,4]oxazin-8-yl)ethylamino)ethyl)-3-(3-((4-(2-(pentan-3-yl)thiazole-4-carbonyl)-1-oxa-4,9-diazaspiro[5.5]undecan-9-yl)methyl)phenethoxy)propanamide] the EC50 (Adrenergic β2) was 158 nM, the “β2 Intrinsic Activity” value (Adrenergic β2) was 1.0 and the IC50 [1] was 0.251 nM.

`CCN(CCNCCc1ccc(O)c2[nH]c(=O)sc12)C(=O)CCOCCc1ccc(CCN2CCC3(CC2)CN(C(=O)c2csc(C(C)C)n2)CCO3)cc1` [Example 1, N-Ethyl-N-(2-(2-(4-hydroxy-2-oxo-2,3-dihydrobenzo[d]thiazol-7-yl)ethylamino)ethyl)-3-(4-(2-(4-(2-isopropylthiazole-4-carbonyl)-1-oxa-4,9-diazaspiro[5.5]undecan-9-yl)ethyl)phenethoxy)propanamide ditrifluoroacetate] was tested, and the EC50 (Adrenergic β2) was 31.6 nM, the “β2 Intrinsic Activity” value (Adrenergic β2) was 0.7 and the IC50 [1] was 2 nM.

`CCc1nc(C(=O)N2CCOC3(CCN(Cc4cccc(CCOCCC(=O)N(CC)CCNCCc5ccc(O)c6[nH]c(=O)sc56)c4Cl)CC3)C2)cs1` [Example 26, 3-(2-Chloro-3-((4-(2-ethylthiazole-4-carbonyl)-1-oxa-4,9-diazaspiro[5.5]undecan-9-yl)methyl)phenethoxy)-N-ethyl-N-(2-(2-(4-hydroxy-2-oxo-2,3-dihydrobenzo[d]thiazol-7-yl)ethylamino)ethyl)propanamide ditrifluoroacetate] was tested, and the EC50 (Adrenergic β2) was 7.94 nM, the “β2 Intrinsic Activity” value (Adrenergic β2) was 0.8 and the IC50 [1] was 0.631 nM.

In the case of `CCCC[C@@H](C)N(CCNCCc1ccc(O)c2c1OCC(=O)N2)C(=O)CCOCCc1ccc(CCN2CCC3(CC2)CN(C(=O)c2csc(C)n2)CCO3)cc1` [Example 6, (R)—N-(Hexan-2-yl)-N-(2-(2-(5-hydroxy-3-oxo-3,4-dihydro-2H-benzo[b][1,4]oxazin-8-yl)ethylamino)ethyl)-3-(4-(2-(4-(2-methylthiazole-4-carbonyl)-1-oxa-4,9-diazaspiro[5.5]undecan-9-yl)ethyl)phenethoxy)propanamide ditrifluoroacetate], the EC50 (Adrenergic β2) is reported as 31.6 nM, the “β2 Intrinsic Activity” value (Adrenergic β2) is reported as 1.0 and the IC50 [1] is reported as 0.1 nM.

With `CCC(CC)c1nc(C(=O)N2CCOC3(CCN(Cc4cccc(CCOCCC(=O)N(CC)CCNCCc5ccc(O)c6c5OCC(=O)N6)c4F)CC3)C2)cs1` [Example 9, N-Ethyl-3-(2-fluoro-3-((4-(2-(pentan-3-yl)thiazole-4-carbonyl)-1-oxa-4,9-diazaspiro[5.5]undecan-9-yl)methyl)phenethoxy)-N-(2-(2-(5-hydroxy-3-oxo-3,4-dihydro-2H-benzo[b][1,4]oxazin-8-yl)ethylamino)ethyl)propanamide ditrifluoroacetate] the EC50 (Adrenergic β2) was 31.6 nM, the “β2 Intrinsic Activity” value (Adrenergic β2) was 0.8 and the IC50 [1] was 0.501 nM.

For `CC(C)c1nc(C(=O)N2CCOC3(CCN(Cc4cccc(CCCCOCCC(=O)N(CCNCCc5ccc(O)c6c5OCC(=O)N6)C5CCCCC5)c4)CC3)C2)cs1` [Example 58, N-Cyclohexyl-N-(2-(2-(5-hydroxy-3-oxo-3,4-dihydro-2H-benzo[b][1,4]oxazin-8-yl)ethylamino)ethyl)-3-(4-(3-((4-(2-Isopropylthiazole-4-carbonyl)-1-oxa-4,9-diazaspiro[5.5]undecan-9-yl)methyl)phenyl)butoxy)propanamide ditrifluoroacetate], the EC50 (Adrenergic β2) was 100 nM, the “β2 Intrinsic Activity” value (Adrenergic β2) was 0.9 and the IC50 [1] was 0.0631 nM.

`COCCCN(CCNCCc1ccc(O)c2c1OCC(=O)N2)C(=O)CCOCCc1cccc(CN2CCC3(CC2)CN(C(=O)c2csc(C(C)C)n2)CCO3)c1Cl` [Example 71, 3-(2-Chloro-3-((4-(2-isopropylthiazole-4-carbonyl)-1-oxa-4,9-diazaspiro[5.5]undecan-9-yl)methyl)phenethoxy)-N-(2-(2-(5-hydroxy-3-oxo-3,4-dihydro-2H-benzo[b][1,4]oxazin-8-yl)ethylamino)ethyl)-N-(3-methoxypropyl)propanamide ditrifluoroacetate] was tested, and the EC50 (Adrenergic β2) was 50.1 nM, the “β2 Intrinsic Activity” value (Adrenergic β2) was 1.0 and the IC50 [1] was 0.251 nM.

In the case of `COCCN(CCNCCc1ccc(O)c2c1OCC(=O)N2)C(=O)CCOCCc1cccc(CN2CCC3(CC2)CN(C(=O)c2csc(C(C)C)n2)CCO3)c1Cl` [Example 70, 3-(2-Chloro-3-((4-(2-isopropylthiazole-4-carbonyl)-1-oxa-4,9-diazaspiro[5.5]undecan-9-yl)methyl)phenethoxy)-N-(2-(2-(5-hydroxy-3-oxo-3,4-dihydro-2H-benzo[b][1,4]oxazin-8-yl)ethylamino)ethyl)-N-(2-methoxyethyl)propanamide ditrifluoroacetate], the EC50 (Adrenergic β2) is reported as 50.1 nM, the “β2 Intrinsic Activity” value (Adrenergic β2) is reported as 1.0 and the IC50 [1] is reported as 0.126 nM.

In the case of `CC(C)c1nc(C(=O)N2CCOC3(CCN(Cc4cccc(CCOCCC(=O)N(CCNCCc5ccc(O)c6c5OCC(=O)N6)[C@H](C)C(C)C)c4F)CC3)C2)cs1` [Example 12, R)-3-(2-Fluoro-3-((4-(2-isopropylthiazole-4-carbonyl)-1-oxa-4,9-diazaspiro[5.5]undecan-9-yl)methyl)phenethoxy)-N-(2-(2-(5-hydroxy-3-oxo-3,4-dihydro-2H-benzo[b][1,4]oxazin-8-yl)ethylamino)ethyl)-N-(3-methylbutan-2-yl)propanamide ditrifluoroacetate], the EC50 (Adrenergic β2) is reported as 39.8 nM, the “β2 Intrinsic Activity” value (Adrenergic β2) is reported as 1.0 and the IC50 [1] is reported as 0.501 nM.

With `CCN(CCNCCc1ccc(O)c2[nH]c(=O)sc12)C(=O)CCOCCc1cccc(CCN2CCC3(CC2)CN(C(=O)c2csc(C(C)C)n2)CCO3)c1` [Example 35, N-Ethyl-N-(2-(2-(4-hydroxy-2-oxo-2,3-dihydrobenzo[d]thiazol-7-yl)ethylamino)ethyl)-3-(3-(2-(4-(2-isopropylthiazole-4-carbonyl)-1-oxa-4,9-diazaspiro[5.5]undecan-9-yl)ethyl)phenethoxy)propanamide ditrifluoroacetate] the EC50 (Adrenergic β2) was 3.16 nM, the “β2 Intrinsic Activity” value (Adrenergic β2) was 1.0 and the IC50 [1] was 3.98 nM.

For `CCc1ccc(C(=O)N2CCOC3(CCN(Cc4cccc(CCOCCC(=O)N(CCNCCc5ccc(O)c6c5OCC(=O)N6)C5CCCCC5)c4)CC3)C2)s1` [Example 83, N-Cyclohexyl-3-(3-((4-(5-ethylthiophene-2-carbonyl)-1-oxa-4,9-diazaspiro[5.5]undecan-9-yl)methyl)phenethoxy)-N-(2-(2-(5-hydroxy-3-oxo-3,4-dihydro-2H-benzo[b][1,4]oxazin-8-yl)ethylamino)ethyl)propanamide], the EC50 (Adrenergic β2) was 251 nM, the “β2 Intrinsic Activity” value (Adrenergic β2) was 1.1 and the IC50 [1] was 0.316 nM.

With `O=C1COc2c(CCNCCN(C(=O)CCOCCc3cccc(CN4CCC5(CC4)CN(C(=O)c4cc6ccccc6s4)CCO5)c3)C3CCCCC3)ccc(O)c2N1` [Example 81, 3-(3-((4-(Benzo[b]thiophene-2-carbonyl)-1-oxa-4,9-diazaspiro[5.5]undecan-9-yl)methyl)phenethoxy)-N-cyclohexyl-N-(2-(2-(5-hydroxy-3-oxo-3,4-dihydro-2H-benzo[b][1,4]oxazin-8-yl)ethylamino)ethyl)propanamide] the EC50 (Adrenergic β2) was 251 nM, the “β2 Intrinsic Activity” value (Adrenergic β2) was 0.9 and the IC50 [1] was 3.98 nM.

— patent US8476265B2, “Compounds-801” (AstraZeneca AB, priority 2010, dated 2013)
